According to patent publication US5428016A, “Antimicrobial peptide and antimicrobial agent” (Morinaga Milk Industry Co., Ltd., priority 1991, dated 1995):
Where no end group is shown, it is not given here.

Tests used:
Assay type in all cases: cell-based
[1] = tested on: Listeria monocytogenes IDF 1b; conditions: 17 h
Procedure: (§1) The antimicrobial peptides (samples Nos. 1 to 15) were prepared using the same methods as in Examples 1 to 15, and antimicrobial peptide derivatives (samples Nos. 16 to 18) were prepared using the same methods as in Examples 16 to 18, and were sterilized by filtration using a 0.45 μm Millex filter prior to use.
(§2) Various microbial strains shown in Table 4 in the logarithmic phase of growth were inoculated in a peptone medium which consisted of 1% Bactopeptone (manufactured by Difco Laboratory Co.) at a cell concentration of 10^6 /ml, and 160 μl thereof were incubated for 17 hours at 37° C. (or 30° C.) using a 96-hole microtiter plate (manufactured by Falcon Co.). Each sample was added to each medium at a ratio of 0, 1.5, 3, 6, 12, 25, 50, 100, 125 or 250 μM. The growth of the various microorganisms in the various samples at various concentrations was studied by measuring the light absorption at 660 nm.
(§3) The microorganisms used in this experiment are available from The Medical School Laboratories of Tokyo University (IID), Japanese Physicochemical Laboratories (JCM), Japanese International Dairy Federation (IDF), and the storage at the laboratory of the applicant (MMI).

[2] = tested on: Staphylococcus aureus JCM 2151; conditions: JCM 2151, 17 h
Procedure: as §1, §2, §3

[3] = tested on: Klebsiella pneumoniae JCM 1662 T; conditions: JCM 1662, 17 h
Procedure: as §1, §2, §3

[4] = tested on: Pseudomonas aeruginosa MMI 603; conditions: MMI 603, 17 h
Procedure: as §1, §2, §3

[5] = tested on: Escherichia coli IID 861
Procedure: as §1, §2, §3

[6] = tested on: Escherichia coli MMI 0111; experiment: Antimicrobial spectrum, minimum inhibitory concentration
Procedure: as §1, §2, §3

| Substance | minimum inhibitory concentration (MIC) [1] | minimum inhibitory concentration (MIC) [2] | minimum inhibitory concentration (MIC) [3] | minimum inhibitory concentration (MIC) [4] | minimum inhibitory concentration (MIC) [5] | minimum inhibitory concentration (MIC) [6] |
| --- | --- | --- | --- | --- | --- | --- |
| KRNMRK [Sample No. 9, Lys-Arg-Asn-Met-Arg-Lys] | up to 100 μM | up to 100 μM |  |  |  |  |
| KSRRRQWRMKK [Sample No. 12, Lys-Ser-Arg-Arg-Arg-Gln-Trp-Arg-Met-Lys-Lys] | up to 12 μM | up to 12 μM | up to 50 μM | up to 50 μM |  |  |
| KTFQWQRNMRK [Sample No. 14, Lys-Thr-Phe-Gln-Trp-Gln-Arg-Asn-Met-Arg-Lys] | up to 12 μM | up to 12 μM | up to 50 μM | up to 50 μM |  |  |
| KTLRWQNEMRK [Sample No. 15, Lys-Thr-Leu-Arg-Trp-Gln-Asn-Glu-Met-Arg-Lys] | up to 12 μM | up to 12 μM | up to 50 μM | up to 50 μM |  |  |
| KTRRWQWRMKK [Sample No. 11, Lys-Thr-Arg-Arg-Trp-Gln-Trp-Arg-Met-Lys-Lys] | up to 12 μM | up to 12 μM | up to 50 μM | up to 50 μM |  |  |
| KTRRWQWRMKK-NH2 [Sample No. 18, Lys-Thr-Arg-Arg-Trp-Gln-Trp-Arg-Met-Lys-Lys-NH2] |  |  |  |  | 3 µM | 6 µM |
| KTVSWQTYMKK [Sample No. 13, Lys-Thr-Val-Ser-Trp-Gln-Thr-Tyr-Met-Lys-Lys] | up to 12 μM | up to 12 μM | up to 50 μM | up to 50 μM |  |  |
| KTVSWR [Sample No. 8, Lys-Thr-Val-Ser-Trp-Arg] | up to 100 μM | up to 100 μM |  |  |  |  |
| RRRQWR [Sample No. 7, Arg-Arg-Arg-Gln-Trp-Arg] | up to 100 μM | up to 100 μM |  |  |  |  |
| RRWQWR [Sample No. 6, Arg-Arg-Trp-Gln-Trp-Arg] | up to 100 μM | up to 100 μM |  |  |  |  |
| RWQEMK [Sample No. 10, Arg-Trp-Gln-Glu-Met-Lys] | up to 100 μM | up to 100 μM |  |  |  |  |
